According to patent US8299021B2, “Macrocyclic inhibitors of hepatitis C virus replication” (InterMune, Inc., priority 2005, dated 2012):

Target: T1, NS3-NS4 protease (full-length NS3/NS4A-2) (Hepatitis C virus genotype 1a, UniProt P27958)
T1 construct: Recombinant E. coli or Baculovirus full-length NS3 was diluted to 3.33 μM with assay buffer; made in house; host or cells: E. coli or baculovirus (insect cells)
Test: NS3-NS4 protease assay / NS3 inhibition assay (RETS1 substrate, fluorescence kinetic read)
Format: biochemical
Conditions: Table 22; read-out: NS3-NS4 IC50
Experimental: NS3 complex formation with NS4A-2.
The appropriate amount of NS4A-2 to 8.3 mM in assay buffer was added to equal the volume of NS3 in step 2.1.1 (conversion factor—3.8 mg/272 μL assay buffer). The material was transferred to an eppendorf tube and place in water bath in 4° C. refrigerator.
After equilibration to 4° C., equal volumes of NS3 and NS4A-2 solutions were combined in an eppendorf tube, mix gently with a manual pipettor, and incubate mixture for 15 minutes in the 4° C. water bath.
After 15 minutes at 4° C., the NS3/NS4A-2 eppendorf tube was removed and place it in a room temperature water bath for 10 minutes. NS3/NS4A-2 was alliquoted at appropriate volumes and store at −80° C. (E. coli NS3 run at 2 nM in assay, aliquot at 25 μL. BV NS3 run at 3 nM in assay, aliquot at 30 μL).
Sample compounds were dissolved to 10 mM in DMSO then diluted to 2.5 mM (1:4) in DMSO.
The E. coli. […] Using the manual multichannel pipettor, careful not to introduce bubbles into the plate, add 50 μL assay buffer to wells A01-H01 of a black Costar 96-well polypropylene storage plate.
Using the manual multichannel pipettor, careful not to introduce bubbles into the plate, add 50 μL of diluted NS3/NS4A-2 from step 2.2.6 to wells A02-H12 of plate in step 2.2.7. Using the manual multichannel pipettor, careful not to introduce bubbles into the plate, transfer 25 μL of the wells in drug dilution plate in step 2.2.5 to corresponding wells in assay plate in step 2.2.8. Change tips on multichannel pipettor for each row of compounds transferred. Using the manual multichannel pipettor, careful not to introduce bubbles into the plate, mix the wells from the assay plate in step 2.2.9 by aspirating and dispensing 35 μL of the 75 μL in each well five times. Change tips on multichannel pipettor for each row of wells mixed. Cover plate with a polystyrene plate lid and pre-incubate the plate from step 2.2.10 containing NS3 protease and sample compounds 10 minutes at room temperature. While plate from step 2.2.11 is pre-incubating, dilute RETS1 substrate in a 15 mL polypropylene centrifuge tube.
After the plate in step is done pre-incubating, and using the manual multichannel, add 25 μL of substrate to all wells on the plate. Quickly mix the plate as in step 2.2.10, mixing 65 μL of the 100 μL in the wells.
Read the plate in kinetic mode on the Molecular Devices SpectraMax
IC50s are determined using a four parameter curve fit equation, and converted to Ki's using the following Km's:
where Ki=IC50/(1+[S]/Km))

T1 sequence (P27958 1027-1657): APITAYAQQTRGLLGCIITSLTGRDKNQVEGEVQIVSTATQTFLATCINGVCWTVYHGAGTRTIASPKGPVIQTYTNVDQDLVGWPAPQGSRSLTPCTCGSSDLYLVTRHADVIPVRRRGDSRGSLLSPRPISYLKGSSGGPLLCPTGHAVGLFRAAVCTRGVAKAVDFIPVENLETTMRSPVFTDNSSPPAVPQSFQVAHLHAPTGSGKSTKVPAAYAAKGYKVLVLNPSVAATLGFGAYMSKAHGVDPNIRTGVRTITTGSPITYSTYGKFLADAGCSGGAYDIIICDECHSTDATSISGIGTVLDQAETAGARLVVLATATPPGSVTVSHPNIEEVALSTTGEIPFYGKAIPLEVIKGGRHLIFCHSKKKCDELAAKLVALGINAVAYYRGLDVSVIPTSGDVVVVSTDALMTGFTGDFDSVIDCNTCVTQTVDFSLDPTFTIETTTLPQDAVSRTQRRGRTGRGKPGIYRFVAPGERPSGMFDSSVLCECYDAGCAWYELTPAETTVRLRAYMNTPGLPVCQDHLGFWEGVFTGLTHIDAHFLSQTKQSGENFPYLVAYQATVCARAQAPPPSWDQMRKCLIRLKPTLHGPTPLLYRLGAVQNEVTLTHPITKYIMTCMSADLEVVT

`CC(C)(C)OC(=O)N[C@H]1CCCCC/C=C\[C@@H]2C[C@@]2(C(=O)NC#N)NC(=O)[C@@H]2CCCN2C1=O` [Compound 2306] and `CC(C)(C)OC(=O)N[C@H]1CCCCC/C=C\[C@@H]2C[C@@]2(C(=O)NC2CCC2)NC(=O)[C@@H]2CCCN2C1=O` [Compound 2303] cannot be ordered by IC50: less than 1000 nM for the first, less than 1000 nM for the second.

`COc1cccc(NC(=O)[C@@]23C[C@H]2/C=C\CCCCC[C@H](NC(=O)OC(C)(C)C)C(=O)N2CCC[C@H]2C(=O)N3)c1` [Compound 2312] and `CC(C)(C)OC(=O)N[C@H]1CCCCC/C=C\[C@@H]2C[C@@]2(C(=O)Nc2ccc(F)cc2)NC(=O)[C@@H]2CCCN2C1=O` [Compound 2304] cannot be ordered by IC50: less than 1000 nM for the first, less than 1000 nM for the second.

`C[C@H](NC(=O)[C@@]12C[C@H]1/C=C\CCCCC[C@H](NC(=O)OC(C)(C)C)C(=O)N1CCC[C@H]1C(=O)N2)c1ccccc1` [Compound 2301] and `C[C@@H](NC(=O)[C@@]12C[C@H]1/C=C\CCCCC[C@H](NC(=O)OC(C)(C)C)C(=O)N1CCC[C@H]1C(=O)N2)c1ccccc1` [Compound 2311] cannot be ordered by IC50: less than 10000 nM for the first, less than 1000 nM for the second.

`CC(C)(C)OC(=O)N[C@H]1CCCCC/C=C\[C@@H]2C[C@@]2(C(=O)NCc2ccccc2)NC(=O)[C@@H]2CCCN2C1=O` [Compound 2307] and `CC(C)(C)OC(=O)N[C@H]1CCCCC/C=C\[C@@H]2C[C@@]2(C(=O)NCc2ccc(Cl)cc2)NC(=O)[C@@H]2CCCN2C1=O` [Compound 2308] cannot be ordered by IC50: less than 1000 nM for the first, less than 1000 nM for the second.

`CC(C)(C)OC(=O)N[C@H]1CCCCC/C=C\[C@@H]2C[C@@]2(C(=O)NCc2cccc(C(=O)O)c2)NC(=O)[C@@H]2CCCN2C1=O` [Compound 2310] and `CC(C)(C)OC(=O)N[C@H]1CCCCC/C=C\[C@@H]2C[C@@]2(C(=O)Nc2ccccc2Cl)NC(=O)[C@@H]2CCCN2C1=O` [Compound 2309] cannot be ordered by IC50: less than 1000 nM for the first, less than 1000 nM for the second.

Same assay, conditions: Table 25; read-out: NS3-NS4 IC50

`Cc1ccc([S+]([O-])NC(=O)C23CC2C=CCCCCCC(NC(=O)OC(C)(C)C)C(=O)N2CC(OC(=O)N4Cc5ccccc5C4)CC2C(=O)N3)cc1` (stereo not drawn) [Compound 2603] was tested, and the IC50 was less than 10000 nM.

Same assay, conditions: read-out: NS3-NS4 IC50

`CCCCS(=O)(=O)NC(=O)[C@@]12C[C@H]1/C=C\CCCCC[C@H](NC(=O)OC(C)(C)C)C(=O)N1CCC[C@H]1C(=O)N2` [Compound 2106] and `CC(C)(C)OC(=O)N[C@H]1CCCCC/C=C\[C@@H]2C[C@@]2(C(=O)NS(=O)(=O)Nc2ccc(Cl)c(Cl)c2)NC(=O)[C@@H]2CCCN2C1=O` [Compound 2234] cannot be ordered by IC50: less than 100 nM for the first, less than 1000 nM for the second.

`CC(C)(C)OC(=O)N[C@H]1CCCCC/C=C\[C@@H]2C[C@@]2(C(=O)NS(C)(=O)=O)NC(=O)[C@@H]2CCCN2C1=O` [Compound 2103] and `CC(C)N(C(C)C)S(=O)(=O)NC(=O)[C@@]12C[C@H]1/C=C\CCCCC[C@H](NC(=O)OC(C)(C)C)C(=O)N1CCC[C@H]1C(=O)N2` [Compound 2209] cannot be ordered by IC50: less than 1000 nM for the first, less than 1000 nM for the second.

First: Cyclopentyl (1aR,9S,19aR)-15-(3-chlorophenoxy)-10,18-dioxo-19a-(phenylsulfonylcarbamoyl)-1a,2,3,4,5,6,7,8,9,10,12,17,17a,18,19,19a-hexadecahydro-1H-2,5-diaza-bicyclo[13.1.0]hexadec-1(15)-eno[5,4-b]isoquinolin-9-ylcarbamate [Compound 2010]
Second: CC(C)OC(=O)N[C@H]1CCCCC/C=C\[C@@H]2C[C@@]2(C(=O)NS(=O)(=O)Nc2ccc(Cl)cc2)NC(=O)[C@@H]2CCCN2C1=O [Compound 418]
The IC50 of the first is lower: less than 10000 nM for the first, greater than 10000 nM for the second. The first is the more potent here.

`CC(C)(C)OC(=O)N[C@H]1CCCCC/C=C\[C@@H]2C[C@@]2(C(=O)NS(=O)(=O)c2ccc([N+](=O)[O-])cc2)NC(=O)[C@@H]2CCCN2C1=O` [Compound 2102] and `CC(C)(C)OC(=O)N[C@H]1CCCCC/C=C\[C@@H]2C[C@@]2(C(=O)NS(=O)(=O)Nc2ccccc2)NC(=O)[C@@H]2CCCN2C1=O` [Compound 2246] cannot be ordered by IC50: less than 10000 nM for the first, less than 1000 nM for the second.

`CC(C)(C)OC(=O)N[C@H]1CCCCC/C=C\[C@@H]2C[C@@]2(C(=O)NS(=O)(=O)c2cnccc2Cl)NC(=O)[C@@H]2CCCN2C1=O` [Compound 2128] and `CC(C)(C)OC(=O)NC1CCCCCC=CC2CC2(C(=O)NS(=O)(=O)c2ccccc2Cl)NC(=O)C2CCCN2C1=O` (stereo not drawn) [Compound 2109] cannot be ordered by IC50: less than 10000 nM for the first, less than 10000 nM for the second.

`CC(C)S(=O)(=O)NC(=O)[C@@]12C[C@H]1/C=C\CCCCC[C@H](NC(=O)OC(C)(C)C)C(=O)N1CCC[C@H]1C(=O)N2` [Compound 2104] and `CCC1CCCCN1S(=O)(=O)NC(=O)[C@@]12C[C@H]1/C=C\CCCCC[C@H](NC(=O)OC(C)(C)C)C(=O)N1CCC[C@H]1C(=O)N2` (stereo partly drawn) [Compound 2220] cannot be ordered by IC50: less than 10000 nM for the first, less than 1000 nM for the second.

`CC1CCCCN1S(=O)(=O)NC(=O)[C@@]12C[C@H]1/C=C\CCCCC[C@H](NC(=O)OC(C)(C)C)C(=O)N1CCC[C@H]1C(=O)N2` (stereo partly drawn) [Compound 2225] and `CC(C)(C)OC(=O)N[C@H]1CCCCC/C=C\[C@@H]2C[C@@]2(C(=O)NS(=O)(=O)NC2CCC2)NC(=O)[C@@H]2CCCN2C1=O` [Compound 2214] cannot be ordered by IC50: less than 10000 nM for the first, less than 1000 nM for the second.

Compared with `CC(C)(C)OC(=O)N[C@H]1CCCCC/C=C\[C@@H]2C[C@@]2(C(=O)NS(=O)(=O)NCC2CC2)NC(=O)[C@@H]2CCCN2C1=O` [Compound 2245], `Cc1ccc(CC(=O)N[C@H]2CCCCC/C=C\[C@@H]3C[C@@]3(C(=O)NS(=O)(=O)C3CC3)NC(=O)C3CCCN3C2=O)cc1` (stereo partly drawn) [Compound 2140] is higher in IC50: less than 100 nM for the first, greater than 10000 nM for the second. The first is the more potent here.

`CC(C)(C)OC(=O)N[C@H]1CCCCC/C=C\[C@@H]2C[C@@]2(C(=O)NS(=O)(=O)N2CCCCC2)NC(=O)[C@@H]2CCCN2C1=O` [Compound 2219] and `CC(C)(C)OC(=O)N[C@H]1CCCCC/C=C\[C@@H]2C[C@@]2(C(=O)NS(=O)(=O)NC2CCCC2)NC(=O)[C@@H]2CCCN2C1=O` [Compound 2215] cannot be ordered by IC50: less than 10000 nM for the first, less than 1000 nM for the second.

`CCCNS(=O)(=O)NC(=O)[C@@]12C[C@H]1/C=C\CCCCC[C@H](NC(=O)OC(C)(C)C)C(=O)N1CCC[C@H]1C(=O)N2` [Compound 2217] and `CC(C)(C)OC(=O)N[C@H]1CCCCC/C=C\[C@@H]2C[C@@]2(C(=O)NS(=O)(=O)c2ccccc2)NC(=O)[C@@H]2CCCN2C1=O` [Compound 2101] cannot be ordered by IC50: less than 1000 nM for the first, less than 10000 nM for the second.

`CC(C)(C)OC(=O)N[C@H]1CCCCC/C=C\[C@@H]2C[C@@]2(C(=O)NS(=O)(=O)c2cccc3ccccc23)NC(=O)[C@@H]2CCCN2C1=O` [Compound 2148] and `CCOC(=O)[C@@]12C[C@H]1/C=C\CCCCC[C@H](NC(=O)OC(C)(C)C)C(=O)N1Cc3ccc(Oc4cccc(Cl)c4)cc3CC1C(=O)N2` (stereo partly drawn) [Compound 2006] cannot be ordered by IC50: less than 10000 nM for the first, less than 1000 nM for the second.

`CN(CCc1ccccc1)S(=O)(=O)NC(=O)[C@@]12C[C@H]1/C=C\CCCCC[C@H](NC(=O)OC(C)(C)C)C(=O)N1CCC[C@H]1C(=O)N2` [Compound 2248] and `COc1ccc(NS(=O)(=O)NC(=O)[C@@]23C[C@H]2/C=C\CCCCC[C@H](NC(=O)OC(C)(C)C)C(=O)N2CCC[C@H]2C(=O)N3)cc1` [Compound 2244] cannot be ordered by IC50: less than 10000 nM for the first, less than 100 nM for the second.

`CC(C)(C)OC(=O)N[C@H]1CCCCC/C=C\[C@@H]2C[C@@]2(C(=O)NS(=O)(=O)c2ccc(Cl)cc2)NC(=O)[C@@H]2CCCN2C1=O` [Compound 2129] and `CCNS(=O)(=O)NC(=O)[C@@]12C[C@H]1/C=C\CCCCC[C@H](NC(=O)OC(C)(C)C)C(=O)N1CCC[C@H]1C(=O)N2` [Compound 2216] cannot be ordered by IC50: less than 10000 nM for the first, less than 10000 nM for the second.

Going from `CC(C)(C)OC(=O)N[C@H]1CCCCC/C=C\[C@@H]2C[C@@]2(C(=O)NS(=O)(=O)Nc2ccc(Cl)cc2)NC(=O)[C@@H]2CCCN2C1=O` [Compound 2247] to `CN(CC#N)S(=O)(=O)NC(=O)[C@@]12C[C@H]1/C=C\CCCCC[C@H](NC(=O)OC(C)(C)C)C(=O)N1CCC[C@H]1C(=O)N2` [Compound 2249], the IC50 falls from greater than 10000 nM to less than 1000 nM. The second is the more potent here.

`COC(=O)C1CCCCN1S(=O)(=O)NC(=O)[C@@]12C[C@H]1/C=C\CCCCC[C@H](NC(=O)OC(C)(C)C)C(=O)N1CCC[C@H]1C(=O)N2` (stereo partly drawn) [Compound 2221] and `CC(C)(C)OC(=O)N[C@H]1CCCCC/C=C\[C@@H]2C[C@@]2(C(=O)NS(=O)(=O)c2ccc(Cl)cc2Cl)NC(=O)[C@@H]2CCCN2C1=O` [Compound 2153] cannot be ordered by IC50: less than 1000 nM for the first, less than 10000 nM for the second.

`CO[C@@H]1C[C@H]2C(=O)N[C@]3(C(=O)NS(=O)(=O)C4CC4)C[C@H]3/C=C\CCCCC[C@H](NC(=O)OC(C)(C)C)C(=O)N2C1` [Compound 2146, 1S,4R,6S,14S,18R)-tert-Butyl 4-cyclopropylsulfonylaminocarbonyl-2,15-dioxo-3,16-diaza-18-methoxy-tricyclo[14.3.0.0^4,6]nonadec-7-ene-14-yl carbamate] was tested, and the IC50 was greater than 10000 nM.
